Measurements published in patent US20210196766A1, “DESIGNED BACTERIAL COMPOSITIONS AND USES THEREOF” (Seres Therapeutics, Inc., priority 2019, published 2021).
Where two headings read alike, the source gives them in different places.

What was measured:
[1] = system: primary human colon epithelial cell monolayer; assay: Primary epithelial cell monolayer barrier integrity assay (IFN-γ, FITC-dextran); conditions: for restoration of barrier integrity in the presence of IFN-γ: metabolites, starting at a concentration of about 5 mM
Description: The assays were performed using a primary epithelial cell monolayer barrier integrity assay. […] The addition of interferon-gamma (IFN-γ) disrupts the tight junctions of the epithelial monolayer and induces apoptosis of epithelial cells. The leakiness of the membrane can be assessed by adding FITC-dextran to the apical side of the apparatus and measuring how rapidly it can pass to the basolateral compartment. A leaky monolayer will allow FITC-dextran to the basal side of the apparatus more quickly than a monolayer with an intact monolayer.
Briefly, the barrier integrity assay was conducted as follows. […] Colon organoids were harvested and trypsinized into a suspension containing few cell clusters and seeded onto Matrigel coated transwell inserts (Corning) at a density of 100,000 cells per insert in 50% L-WRN medium supplemented with 10 μM Y-27632 (Millipore Sigma). […] These primarily stem cell population was differentiated into colonocytes by switching the culture medium to 5% L-WRN for 48 hours. After 24 hours of differentiation, specific SCFA or 5% bacterial culture supernatant treatments were added to apical interface in 100 μL of 5% L-WRN medium and 5-25 ng/ml INFγ (Peprotech), depending on the experiment, was added in 175 μL of 5% L-WRN medium to the basolateral interface and incubated for 48 hours at 37° C. After the 48 hour incubation, colonic epithelial monolayer permeability was assessed by adding 10 μL of 10 ng/ml FITC-Dextran (4 kDa, Sigma) to the apical interface, the organoids were incubated for 1 hour and then 100 μL of medium was collected from the basolateral compartment of each transwell and transferred to a 96 well plate for fluorescence detection.

HT29 cells = assay: Anti-inflammatory assay in IECs: TNF-α-driven IL-8 secretion by HT29 cells; type: cell-based, human; conditions: metabolites
[2] = system: HDAC enzymes (HeLa nuclear extract); assay: HDAC inhibition assay of bacterial supernatants (HDAC-Glo I/II, HeLa nuclear extract); type: biochemical
[3] = GC-MS of short-, medium- and branched-chain fatty acids in supernatants; conditions: single strain supernatants
Description: FIG. 18 provides a table listing bacterial species and the short chain fatty acids (SCFAs), medium chain fatty acids (MCFAs), and branched chain fatty acids (BCFAs) produced by each of the species. […] The limit of detection for each of the fatty acids is provided in the row labeled “Limit of Detection (LOD).” The SCFAs measured included: acetic acid, propanoic acid, and butanoic acid. The MCFAs measured included: pentanoic acid, hexanoic acid, heptanoic acid. The BCFAs measured included: 2-methyl-propanopic acid, 3-methyl-butanoic acid, and 4-methyl-pentaoic acid.
As described supra, certain tryptophan (Trp) metabolites were associated with remission in patients treated with an HHSP. Accordingly, Applicant tested various bacterial species for the presence of SCFA or tryptophan metabolites in their supernatants. The presence of the tryptophan metabolites was determined using a colorimetric assay for detection of indolic compounds (Indole Reagent, Anaerob Systems). Indole produces a light blue color in this assay, while other Trp metabolites produce purple color. The presence of SCFAs were tested using the HDAC assay (described supra). Supernatants of selected strains that were identified as producers of Trp metabolites by the colorimetric indole assay, and/or producers of SCFAs by the HDAC assay were further analyzed by GC-MS to identify the specific metabolites produced.

O=C(O)CCc1c[nH]c2ccccc12 [3-indolepropionic acid]
restoration of barrier integrity in the presence of IFN-γ [1]: restored barrier integrity

CC(=O)O [acetate]
TNF-α-dependent IL-8 secretion (HT29 cells): reduced levels of TNF-α-dependent IL-8 secretion

CCCC(=O)O [butyrate]
decrease of permeability ([1]; 5 mM, positive control): 50%

CCC(=O)O [propionate]
TNF-α-dependent IL-8 secretion (HT29 cells): reduced levels of TNF-α-dependent IL-8 secretion
restoration of barrier integrity in the presence of IFN-γ [1]: restored barrier integrity

Clostridium clostridioforme
HDAC cluster assignment [2]: 6

Clostridium disporicum
HDAC cluster assignment [2]: 0

Clostridium glycolicum
hexanoate production [3]: Hexanoate producing

Clostridium mayombei
HDAC cluster assignment [2]: 2

Clostridium sp 7 2 43FAA
HDAC cluster assignment ([2]; pattern of HDAC inhibition across nutrient sources): 5
HDAC Inhibition in any C source (25/18% cutoff) ([2]; supernatants of strains grown in PY medium with one of seven C sources at 0.5%): 1 (If a strain exhibits HDACi activity of at least 0.25 in any nutrient, or 0.18 in fucose, it is considered to have HDACi activity and it is marked with “1”)

Clostridium tertium
HDAC cluster assignment [2]: 5

Parabacteroides distasonis
HDAC cluster assignment [2]: 3
